Where two headings read alike, the source gives them in different places.
How the values were obtained:
AKT1 WT = biological target: T1, AKT1 WT (Homo sapiens, UniProt P31749); experiment: Live cell AKT1 WT target engagement by NanoBRET competitive probe displacement in HEK293 cells; format: binding; details: 2 h at 37° C., read-out: AKT1 WT IC50
T1 construct: expressed in transfected cells; host or cells: HEK293
Protocol: (§1) Determining live cell AKT1 E17K, AKT1 WT, and AKT2 target engagement by NanoBRET competitive probe displacement. […] Briefly, HEK293 cells were transfected with plasmids encoding kinase-NanoLuciferase fusion proteins overnight. Cells were then treated with serial dilutions of compound and an ˜EC50 concentration of fluorescently-tagged ATP-competitive tracer (Promega). After incubation for 2 h at 37° C., luciferase substrate and extracellular luciferase inhibitor were added to all wells, and luminescent intensity at 460 nm and 600 nm were measured on a multimode plate-reader. The ratio of E600/E460 was calculated to give the tracer engagement signal (BRET). IC50 values were calculated by fitting BRET values to a log(inhibitor) vs. response Hill equation.

AKT2 = biological target: T2, AKT2 (Homo sapiens, UniProt P31751); experiment: Live cell AKT2 target engagement by NanoBRET competitive probe displacement in HEK293 cells; format: binding; details: 2 h at 37° C., read-out: AKT2 IC50
T2 construct: expressed in transfected cells; host or cells: HEK293
T2 sequence (P31751 whole entry): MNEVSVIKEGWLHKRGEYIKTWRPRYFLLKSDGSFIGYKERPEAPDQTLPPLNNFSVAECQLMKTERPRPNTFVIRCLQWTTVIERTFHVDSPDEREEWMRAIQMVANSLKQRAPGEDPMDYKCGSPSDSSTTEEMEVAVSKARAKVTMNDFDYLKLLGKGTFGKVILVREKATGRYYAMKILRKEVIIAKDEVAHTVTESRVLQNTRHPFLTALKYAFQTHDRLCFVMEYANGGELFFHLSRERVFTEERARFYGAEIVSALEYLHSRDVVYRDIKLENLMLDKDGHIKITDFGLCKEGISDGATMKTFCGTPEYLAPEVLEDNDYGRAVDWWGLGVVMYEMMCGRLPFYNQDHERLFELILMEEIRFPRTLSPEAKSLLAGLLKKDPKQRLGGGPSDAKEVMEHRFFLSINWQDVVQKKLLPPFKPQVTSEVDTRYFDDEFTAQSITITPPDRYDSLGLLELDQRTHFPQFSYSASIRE
Protocol: as §1

[1] = NanoBRET live cell target engagement, HEK293 cells
[2] = NanoBRET competitive probe displacement, live HEK293 cells

T1 sequence (P31749 whole entry): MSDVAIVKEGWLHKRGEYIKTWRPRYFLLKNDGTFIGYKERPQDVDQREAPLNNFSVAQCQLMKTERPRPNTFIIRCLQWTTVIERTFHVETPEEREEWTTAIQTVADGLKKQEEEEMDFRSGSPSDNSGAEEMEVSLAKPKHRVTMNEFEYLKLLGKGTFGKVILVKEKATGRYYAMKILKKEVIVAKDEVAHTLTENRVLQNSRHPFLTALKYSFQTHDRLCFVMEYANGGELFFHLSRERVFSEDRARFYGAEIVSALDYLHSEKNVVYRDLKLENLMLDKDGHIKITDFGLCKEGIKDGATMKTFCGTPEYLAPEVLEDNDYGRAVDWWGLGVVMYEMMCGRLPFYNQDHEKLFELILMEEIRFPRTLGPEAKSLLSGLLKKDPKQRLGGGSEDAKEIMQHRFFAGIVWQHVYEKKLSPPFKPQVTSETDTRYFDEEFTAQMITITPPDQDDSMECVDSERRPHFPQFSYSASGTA

| Compound | IC50 (AKT1 WT; [1]) | IC50 (AKT2; [1]) | IC50 (AKT1 WT; [2]) | IC50 (AKT2; [2]) |
| --- | --- | --- | --- | --- |
| Nc1ncccc1-c1nc2ccc(-n3cccn3)nc2n1-c1ccc2c(c1)CC[C@@H]2NC(=O)c1ccc(CF)nc1 [Compound 98] | 13.2 nM | 52.6 nM | – | – |
| Cc1ccc(C(=O)N[C@H]2CCc3cc(-n4c(-c5cccnc5N)nc5ccc(-c6nc(C)co6)nc54)ccc32)cn1 [Compound 267] | 14.6 nM | 286 nM | – | – |
| Cn1ccc(N2CCC(N[C@H]3CCc4cc(-n5c(-c6cccnc6N)nc6ccc(-n7ccc(C8CCOCC8)n7)nc65)ccc43)CC2)n1 [Compound 549] | – | – | 27.6 nM | 723 nM |
| CCc1cc(C(=O)N[C@H]2CCc3cc(-n4c(-c5cccnc5N)nc5ccc(-n6cccn6)nc54)ccc32)ccn1 [Compound 204] | 9.42 nM | 53.1 nM | – | – |
| Nc1ncccc1-c1nc2ccc(-n3cccn3)nc2n1-c1ccc2c(c1)CC[C@@H]2NC1CC2(CCCN2c2ccccn2)C1 (some centres unmarked) [Compound 465] | – | – | > 1000 nM | > 10000 nM |
| Nc1ncccc1-c1nc2ccc(-n3cccn3)nc2n1-c1ccc2c(c1)CC[C@@H]2NC1Cc2cccnc2C1 (some centres unmarked) [Compound 531] | – | – | 50.6 nM | 1280 nM |
| Nc1ncccc1-c1nc2ccc(-n3cccn3)nc2n1-c1ccc2c(c1)CC[C@@H]2NC1CC2(CCCN(c3ccccn3)C2)C1 (some centres unmarked) [Compound 467] | – | – | 358 nM | 3560 nM |
| COc1cnn(-c2ccc3nc(-c4cccnc4N)n(-c4ccc5c(c4)CC[C@@H]5NC(=O)c4cnc(C(F)F)s4)c3n2)n1 [Compound 594] | – | – | 27.6 nM | 2690 nM |
| Nc1ncccc1-c1nc2ccc(-n3cccn3)nc2n1-c1ccc2c(c1)CC[C@@H]2n1cnnc1-c1ccccc1 [Compound 178] | 88.2 nM | 3520 nM | – | – |
| Cc1cc2c(=O)n([C@H]3CCc4cc(-n5c(-c6cccnc6N)nc6ccc(-n7cccn7)nc65)ccc43)cnc2cn1 [Compound 81, (S)-3-(5-(2-(2-aminopyridin-3-yl)-5-(1H-pyrazol-1-yl)-3H-imidazo[4,5-b]pyridin-3-yl)-2,3-dihydro-1H-inden-1-yl)-6-methylpyrido[3,4-d]pyrimidin-4(3H)-one] | 121 nM | 2900 nM | – | – |
| CN(C)Cc1cn([C@H]2CCc3cc(-n4c(-c5cccnc5N)nc5ccc(-n6cccn6)nc54)ccc32)nn1 [Compound 218] | 643 nM | 4400 nM | – | – |
| Nc1ncccc1-c1nc2ccc(-n3cccn3)nc2n1-c1ccc2c(c1)CC[C@@H]2n1cnnc1Cc1ccccc1 [Compound 169, (S)-3-(3-(1-(3-benzyl-4H-1,2,4-triazol-4-yl)-2,3-dihydro-1H-inden-5-yl)-5-(1H-pyrazol-1-yl)-3H-imidazo[4,5-b]pyridin-2-yl)pyridin-2-amine] | 12 nM | 228 nM | – | – |
| Nc1ncccc1-c1nc2ccc(-n3cccn3)nc2n1-c1ccc2c(c1)CC[C@@H]2NC1CCN(c2ccccc2)C1 (some centres unmarked) [Compound 470] | – | – | 68.2 nM | 777 nM |
| Nc1ncccc1-c1nc2ccc(-n3ccc(F)n3)nc2n1-c1ccc2c(c1)CC[C@@H]2NC(=O)c1ccc(F)c(F)c1 [Compound 347] | 23.7 nM | 824 nM | – | – |
| Nc1ncccc1-c1nc2ccc(-n3cccn3)nc2n1-c1ccc2c(c1)CC[C@@H]2n1cc(C(F)F)nn1 [Compound 326] | 18.2 nM | 1320 nM | – | – |
| Nc1ncccc1-c1nc2ccc(-n3ccc(OC(F)F)n3)nc2n1-c1ccc2c(c1)CC[C@@H]2NC1[C@@H]2COC[C@H]1CN(C(=O)C1CC1)C2 (some centres unmarked) [Compound 560] | – | – | 249 nM | 2520 nM |
| COc1cnn(-c2ccc3nc(-c4cccnc4N)n(-c4ccc5c(c4)CC[C@@H]5NC4CCN(C(=O)C5CC5)CC4)c3n2)c1 [Compound 485] | – | – | 50.9 nM | 997 nM |
| COCc1ncccc1C(=O)N[C@H]1CCc2cc(-n3c(-c4cccnc4N)nc4ccc(-n5cccn5)nc43)ccc21 [Compound 149] | 50.3 nM | 1580 nM | – | – |
| Cc1cc(C(=O)N[C@H]2CCc3cc(-n4c(-c5cccnc5N)nc5ccc(-n6cccn6)nc54)ccc32)ccn1 [Compound 75] | 5.99 nM | 73.6 nM | – | – |
| CC#Cc1cc(C(=O)N[C@H]2CCc3cc(-n4c(-c5cccnc5N)nc5ccc(-n6cccn6)nc54)ccc32)ccn1 [Compound 171, (S)—N-(5-(2-(2-aminopyridin-3-yl)-5-(1H-pyrazol-1-yl)-3H-imidazo[4,5-b]pyridin-3-yl)-2,3-dihydro-1H-inden-1-yl)-2-(prop-1-yn-1-yl)isonicotinamide] | 7.74 nM | 82.9 nM | – | – |
| Cc1ncccc1OCC1CCc2cc(-n3c(-c4cccnc4N)nc4ccc(-n5cccn5)nc43)ccc21 (single isomer, unassigned) [Compound 253, (*)-3-(3-(1-(((2-methylpyridin-3-yl)oxy)methyl)-2,3-dihydro-1H-inden-5-yl)-5-(1H-pyrazol-1-yl)-3H-imidazo[4,5-b]pyridin-2-yl)pyridin-2-amine] | 65.8 nM | 2120 nM | – | – |
| Cc1cc(C(=O)N[C@H]2CCc3cc(-n4c(-c5cccnc5N)nc5ccc(-n6cccn6)nc54)ccc32)cnc1C [Compound 115] | 5.16 nM | 31.7 nM | – | – |
